Assay results as given in US20260258066A1, “NOVEL RUTHENIUM COMPLEXES, METHOD OF THEIR SYNTHESIS, INTERMEDIATE COMPOUNDS USED IN THIS METHOD, METHOD OF THEIR SYNTHESIS AND THE USE OF NOVEL RUTHENIUM COMPLEXES IN OLEFIN METATHESIS REACTIONS” (UNIWERSYTET WARSZAWSKI, priority 2022, published 2026).

Experiment: Test of complex solubility in nonpolar solvents (n-hexane)
Format: physicochemical
Settings: 5 mg catalyst, n-hexane added in portions, room temperature, magnetic stirring
Experimental: In a round-bottom flask equipped with a stirring bar, the catalyst (Ru-a, Ru-b, Ru-c, Ru-d, Ru-h, Ru-15, Ru-16 and Hov-II) was placed, in the amount of 5 mg of each. n-hexane was added to each of the flasks in portions, at room temperature, and the mixture was stirred using a magnetic stirrer. The Ru-a dissolved in 6 mL, and the Ru-h complex in 4 mL of the solvent. In the case of the Ru-15 complex, almost complete solubility was observed after adding 20 mL of n-hexane.

For `Cc1cc(C)c(N2CCN(c3c(C)cc(C)cc3C)[C]2=[Ru]([Cl])([Cl])=[CH]c2ccccc2OC(C)C)c(C)c1` [Hov-II], the “Volume of n-hexane in which 5 mg of the complex dissolved” value was > 20 mL.
